Measurements from patent US9834549B2, “3,3-disubstituted-(8-aza-bicyclo[3.2.1]OCT-8-yl)-[5-(1H-pyrazol-4-yl)-thiophen-3-yl]-methanones as inhibitors of 11 (β)-HSD1” (The University Of Edinburgh, priority 2010, dated 2017).
Where two headings read alike, the source gives them in different places.

Assays:
human 11β-HSD1 = biological target: T1, human 11β-HSD1 (Homo sapiens, UniProt P28845); experiment: Cellular in vitro 11β-HSD1 enzyme inhibition assay (SPA, HEK293/11β-HSD1 cells); format: cell-based
T1 construct: stably transfected with a construct containing the full-length gene coding for the human 11β-HSD1 enzyme; expressed in transfected cells; host or cells: HEK293 (stably transfected, HEK293/11β-HSD1)
T1 sequence (P28845 whole entry): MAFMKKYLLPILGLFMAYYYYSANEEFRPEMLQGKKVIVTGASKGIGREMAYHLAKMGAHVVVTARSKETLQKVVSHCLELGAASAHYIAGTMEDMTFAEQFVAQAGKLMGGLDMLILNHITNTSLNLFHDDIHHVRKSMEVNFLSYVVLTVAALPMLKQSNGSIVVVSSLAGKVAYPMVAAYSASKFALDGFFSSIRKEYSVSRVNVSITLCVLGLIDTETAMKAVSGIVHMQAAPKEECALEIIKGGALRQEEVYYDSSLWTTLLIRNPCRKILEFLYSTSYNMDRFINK
Method: Compounds were assessed by a Scintillation Proximity Assay (SPA) performed according to the following protocol:
HEK293 cells were stably transfected with a construct containing the full-length gene coding for the human 11β-HSD1 enzyme to create HEK293/11β-HSD1 cells. Cells were routinely cultured in DMEM containing 10% calf foetal serum, 1% glutamine, and 1% penicillin and streptomycin. Prior to assay, cells were plated at 2×10^4 cells/well in 96-well poly-D-Lys coated flat-bottomed microplates and incubated in 5% CO2, 95% O2 at 37° C. for 24 hours. The media in each well was removed immediately before assay.
Compounds to be tested were dissolved in DMSO at 10 mM and serially diluted into water containing 10% DMSO. Diluted compounds at a volume of 10 μL were added to wells of a 96-well V-bottomed microplate. A solution of DMEM, 1% glutamine, 1% penicillin and streptomycin, and 22 nM tritiated cortisone was prepared and 90 μL added to each well of the assay plate. This solution (100 μL/well) was transferred to the plate containing the cells. The plate was then incubated in 5% CO2, 95% O2 at 37° C. for 2 hours.
Following this incubation, 50 μL of the assay solution was transferred to each well of a 96-well scintillation microplate. A mixture consisting of anti-mouse YSi SPA beads, pre-mixed with anti-cortisol antibody in assay buffer (50 mM Tris.HCl, pH 7.0; 300 mM NaCl; 1 mM EDTA, 5% glycerol) was prepared and 50 μL added to each well of the scintillation microplate. An adhesive strip was applied to the microplate and the plate gently shaken for at least 2 hours at room temperature, and then spun briefly on a low speed centrifuge. The plate was read on a scintillation counter suitable for 96-well microplates. For the calculation of percentage inhibition, a series of wells were added to the plate that represented the assay maximum and the assay minimum: one set that contained substrate without cells (minimum) and another set that contained substrate and cells without any compound (maximum).
The calculation of median inhibitory concentration (IC50) values for the compounds was performed using GraphPad Prism® software. Dose-response curves for each compound were plotted as fractional inhibition and data fitted to the four parameter logistic equation.

human 11β-HSD2 = biological target: T2, human 11β-HSD2 (Homo sapiens, UniProt P80365); experiment: Cellular in vitro 11β-HSD2 enzyme inhibition assay (CHO cells); format: cell-based; conditions: CHO cells transfected with human 11β-HSD2
T2 construct: CHO cells stably transfected with the full-length gene coding for human 11β-HSD2 were used; expressed in transfected cells; host or cells: CHO (stably transfected)
T2 sequence (P80365 1-405): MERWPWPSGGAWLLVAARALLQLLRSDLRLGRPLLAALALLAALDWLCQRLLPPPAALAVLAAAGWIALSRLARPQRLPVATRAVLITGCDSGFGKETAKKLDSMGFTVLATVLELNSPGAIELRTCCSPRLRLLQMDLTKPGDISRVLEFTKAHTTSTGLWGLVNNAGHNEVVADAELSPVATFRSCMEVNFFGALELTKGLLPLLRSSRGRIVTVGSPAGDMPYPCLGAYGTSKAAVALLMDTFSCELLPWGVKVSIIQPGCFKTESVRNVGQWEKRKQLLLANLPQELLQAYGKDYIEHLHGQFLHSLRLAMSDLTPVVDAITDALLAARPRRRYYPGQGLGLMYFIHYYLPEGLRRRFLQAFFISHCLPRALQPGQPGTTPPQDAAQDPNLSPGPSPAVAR
Method: For measurement of inhibition of 11β-HSD2, CHO cells stably transfected with the full-length gene coding for human 11β-HSD2 were used. Assays were carried out in 96-well microplates containing 1×10^5 cells/well. Controls and compounds were plated as above, so that the final DMSO concentration in each well was 1%. To initiate the assay, 90 μL of a solution of HAMS F-12 medium containing 1% glutamine, 1% penicillin and streptomycin, and 22 nM tritiated cortisol was added to each well of the assay plate. The plate was then incubated in 5% CO2, 95% O2 at 37° C. for 16 hours.
The assay solutions were transferred to glass tubes and […] added to each tube. Each tube was vortexed thoroughly and the upper layer containing the tritiated steroid transferred to a fresh glass tube. The solvent was evaporated by placing the tubes in a heating block at 65° C. under a stream of nitrogen gas. 20 μL ethanol was added to each of the dried samples and vortexed briefly. Each sample was applied to a silica TLC plate and the plate dried. The plate was placed vertically in a glass tank containing 92% chloroform: 8% ethanol and the solvent allowed to rise up the plate. The plate was dried, placed in an imaging cassette, and overlayed with a tritium imaging plate for 1-2 days. The amount of enzyme inhibition in each sample was determined by measuring the intensity of the substrate and product spots using a phospho-imager. IC50 values for inhibitors were determined as described above for 11β-HSD1.

[1] = In vitro human liver microsomal stability assay; format: in vitro ADME; conditions: human liver microsomes
Method: To predict in vivo metabolism of compounds, the stability of compounds incubated with human liver microsomes in vitro was determined. Human liver microsome preparations were stored at −80° C. and thawed on ice prior to use. The thawed microsomes were diluted to a concentration of 2 mg/mL in 50 mM sodium phosphate, pH 7.4. Reference and test compounds were prepared as 10 mM stocks in 100% DMSO and diluted to 1 mM in acetonitrile before use. Each compound was tested in triplicate as follows:
4 μL of test or reference compound was added to a well of a 24-well microplate and 0.5 mL of 4 mM NADPH added. The plate was then transferred to a shaker for 10 minutes at room temperature. 30 μL of the compound/NADPH solution was transferred to the well of a 96-well microplate and incubated at 37° C. for 5 minutes. 30 μL of human liver microsomes (pre-incubated at 37° C. for 5 minutes) was added to the well containing the compound/NADPH solution and the plate incubated for the selected period of time (typically 0 or 30 minutes). The reaction was stopped by adding 60 μL of ice cold […] trichloroacetic acid. The plate was centrifuged at 1000 rpm for 5 minutes at room temperature and the supernatant transferred to the well of a new 96-well V-bottomed microplate for mass spectrometric analysis.
Samples were analyzed by TSQ Quantum Discovery Tandem Mass Spectrometer and Surveyor Liquid Chromatogram (Thermo, Hemel-Hempstead, UK). 10 μL of each sample was injected in a mobile phase consisting of 60%:40% methanol:5 mM ammonium acetate at a flow rate of 0.5 mL/minute. The column used was a BDS hypersil, C18, 50×2.1 mm with a 5 μm particle size.
Each compound was tuned with a spray voltage of 3000 V and a capillary temperature of 300° C. and values for tube lens, CID and product ions were determined.
The peak area for each compound was measured in triplicate for the 0 and 30 minute samples and the average of each was reported. The percentage remaining after 30 minutes was calculated as the average peak area of the sample after 30 minutes divided by the average peak area at 0 minutes. The RSD was 10% or lower for each compound.

[2] = HEK293, potency groups, read-out: IC50 for 11β-HSD1 (HEK293)
[3] = HEK293 cells transfected with human 11β-HSD1, first value in cell, read-out: IC50 for 11β-HSD1 (HEK293)
[4] = HEK293 cells, value marked * in brackets, read-out: IC50 for 11β-HSD1 (HEK293), (*) average of at least two individual experiments

SMILES	IC50 (human 11β-HSD1; [2])	IC50 (human 11β-HSD1; [3])	IC50 (human 11β-HSD1; [4])	IC50 (human 11β-HSD2)	% Parent Remaining at 30 min [1]
O=C(c1csc(-c2cn[nH]c2)c1)N1C2CCC1CC(O)(c1ncccn1)C2 (stereo not shown) [XX-20, (3-Hydroxy-3-pyrimidin-2-yl-8-aza-bicyclo[3.2.1]oct-8-yl)-[5-(1H-pyrazol-4-yl)-thiophen-3-yl]-methanone]	≤ 100 nM	67 nM	42 nM	> 10000 nM	+++ (61-100% +++)
O=C(c1csc(-c2cn[nH]c2)c1)N1C2CCC1CC(O)(c1nccs1)C2 (stereo not shown) [XX-29]	≤ 100 nM	33 nM	31 nM	> 10000 nM	+++ (61-100% +++)
